The text below walks through data of patent US8980916B2, “Factor IXa inhibitors” (Merck Sharp & Dohme Corp., priority 2011, dated 2015).

This assay deals with human Factor IXa (Homo sapiens (Human), UniProt P00740). Put plainly: Factor IXa enzyme assay (SPECTROFLUOR FIXa fluorogenic substrate). Format: biochemical. Conditions: human Factor IXa 2.0 μg/ml, SPECTROFLUOR FIXa 100 μM, 60 minutes at room temperature, pH 8.0. How it is done:
Inhibitory activity against Factor IXa was tested using the substrate SPECTROFLUOR FIXa (American Diagnostica Inc.; 500 West Avenue, Stamford, Conn. 06902 USA; Pr. No. 299F) and human Factor IXa (American Diagnostica Inc.; Pr. No. 449b). Test substances dissolved in buffer A (50 mM α,α,α-tris(hydroxymethyl)methylamine (Tris), 100 mM NaCl, 5 mM CaCl2, 15% (v/v) ethylene glycol, pH 8.0) were mixed with Factor IXa (2.0 μg/ml final concentration). The enzyme reaction was started by addition of SPECTROFLUOR FIXa (100 μM final concentration). After incubation for 60 minutes at room temperature, the reaction was stopped by the addition of 20% (v/v) acetic acid solution, and then fluorescence value measured (Excitation Wavelength: 355 nm, Emission Wavelength; 460 nm) in a microtiter plate reader (ARVO 1420 Multilabel Counter; PerkinElmer).
IC50 was calculated from a dilution series of the test substance with the aid of the software, Symix Assay Explorer (Symyx Technologies, Inc.).

Chain of human Factor IXa (P00740 227-461): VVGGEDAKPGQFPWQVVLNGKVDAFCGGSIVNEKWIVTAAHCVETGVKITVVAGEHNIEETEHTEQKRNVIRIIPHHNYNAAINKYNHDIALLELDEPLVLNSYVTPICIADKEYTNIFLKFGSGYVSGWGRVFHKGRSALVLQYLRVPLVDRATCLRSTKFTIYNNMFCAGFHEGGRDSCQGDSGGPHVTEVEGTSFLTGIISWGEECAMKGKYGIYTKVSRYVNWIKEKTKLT
Chain of human Factor IXa (P00740 47-191 partner): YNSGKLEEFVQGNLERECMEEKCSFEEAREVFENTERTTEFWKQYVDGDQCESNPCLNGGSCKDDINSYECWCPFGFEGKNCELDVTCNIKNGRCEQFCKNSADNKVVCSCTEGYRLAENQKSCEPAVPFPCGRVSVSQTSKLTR

For `CC(C)(C)c1ccc(-n2cccc(C(O)C(=O)Nc3ccc4c(N)noc4c3)c2=O)cc1` (racemic) [Example 5, (±)-N-(3-aminobenzo[d]isoxazol-6-yl)-2-(1-(4-tert-butylphenyl)-2-oxo-1,2-dihydropyridin-3-yl)-2-hydroxyacetamide], the IC50 was found to be 1000 nM.
Next, `CC(C)(C)c1ccc(-n2cccc(C(O)C(=O)Nc3ccc4c(N)nccc4c3)c2=O)cc1` (racemic) [Example 6, (±)-N-(1-aminoisoquinolin-6-yl)-2-(1-(4-tert-butylphenyl)-2-oxo-1,2-dihydropyridin-3-yl)-2-hydroxyacetamide]: 54 nM.

For orientation: IC50 means the concentration that gives 50% inhibition. The low end stands for higher potency, the high end for lower potency.
